Measured values: ChEMBL document CHEMBL1201862, “PubChem BioAssay data set” (2004)
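Dose response: 5 concentrations. Exposure: 48 h. Format: 96-well plates. Endpoint: linear interpolation; highest concentration if not reached. Abbreviation: GI50, concentration required for 50% inhibition of growth.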 Activity calls are given as the source filed them. Cut-off read from the data, not from the text of the source: active = GI50 up to about 1.1 µM and inactive = higher.

How the values were obtained:
Experiment in all cases: growth of human tumour cells (NCI), 48 h
UACC-62 = tested on: UACC-62
U-251 = tested on: U-251
CCRF-CEM = tested on: CCRF-CEM
MDA-MB-231 = tested on: MDA-MB-231
OVCAR-5 = tested on: OVCAR-5
NCI-H460 = tested on: NCI-H460
RPMI-8226 = tested on: RPMI-8226
NCI-H226 = tested on: NCI-H226
SR = tested on: SR
T47D = tested on: T47D
COLO 205 = tested on: COLO 205
OVCAR-3 = tested on: OVCAR-3
MOLT-4 = tested on: MOLT-4
NCI-H23 = tested on: NCI-H23
PC-3 = tested on: PC-3
UO-31 = tested on: UO-31
HOP-62 = tested on: HOP-62
SF-539 = tested on: SF-539
ACHN = tested on: ACHN
LOX IMVI = tested on: LOX IMVI

SMILES	GI50 (UACC-62)	GI50 (U-251)	GI50 (CCRF-CEM)	GI50 (MDA-MB-231)	GI50 (OVCAR-5)	GI50 (NCI-H460)	GI50 (RPMI-8226)	GI50 (NCI-H226)	GI50 (SR)	GI50 (T47D)	GI50 (COLO 205)	GI50 (OVCAR-3)	GI50 (MOLT-4)	GI50 (NCI-H23)	GI50 (PC-3)	GI50 (UO-31)	GI50 (HOP-62)	GI50 (SF-539)	GI50 (ACHN)	GI50 (LOX IMVI)
COc1cc(CN(C)N2C(=O)c3cccc4cc([N+](=O)[O-])cc(c34)C2=O)cc(OC)c1OC	> 100 µM (inactive)	> 100 µM (inactive)	> 100 µM (inactive)	81.3 µM (inactive)	> 100 µM (inactive)	> 100 µM (inactive)	> 100 µM (inactive)	58.1 µM (inactive)	> 100 µM (inactive)	> 100 µM (inactive)	> 100 µM (inactive)	> 100 µM (inactive)	27.6 µM (inactive)	> 100 µM (inactive)	> 100 µM (inactive)	> 100 µM (inactive)	16.7 µM (inactive)	–	–	–
Cc1ccc2c(c1C)C(=O)C1(Cc3cc4c(cc3C1=O)CCC4)C2 (centres undefined)	> 100 µM (inactive)	> 100 µM (inactive)	> 100 µM (inactive)	> 100 µM (inactive)	> 100 µM (inactive)	> 100 µM (inactive)	> 100 µM (inactive)	> 100 µM (inactive)	> 100 µM (inactive)	> 100 µM (inactive)	> 100 µM (inactive)	87.9 µM (inactive)	> 100 µM (inactive)	> 100 µM (inactive)	> 100 µM (inactive)	> 100 µM (inactive)	–	0.726 µM (active)	> 100 µM (inactive)	–
COC(=O)C1CCN(C(=O)OC(C)(C)C)CC1	> 100 µM (inactive)	> 100 µM (inactive)	> 100 µM (inactive)	> 100 µM (inactive)	> 100 µM (inactive)	> 100 µM (inactive)	> 100 µM (inactive)	–	> 100 µM (inactive)	> 100 µM (inactive)	> 100 µM (inactive)	> 100 µM (inactive)	> 100 µM (inactive)	> 100 µM (inactive)	> 100 µM (inactive)	> 100 µM (inactive)	> 100 µM (inactive)	> 100 µM (inactive)	> 100 µM (inactive)	> 100 µM (inactive)
C/C=N\n1c(C)c(C#N)c(C#N)c1N	> 100 µM (inactive)	> 100 µM (inactive)	> 100 µM (inactive)	> 100 µM (inactive)	> 100 µM (inactive)	–	> 100 µM (inactive)	> 100 µM (inactive)	> 100 µM (inactive)	> 100 µM (inactive)	> 100 µM (inactive)	> 100 µM (inactive)	> 100 µM (inactive)	> 100 µM (inactive)	> 100 µM (inactive)	> 100 µM (inactive)	> 100 µM (inactive)	> 100 µM (inactive)	> 100 µM (inactive)	> 100 µM (inactive)
C[C@]12CC[C@H](O)CC1=CC[C@@H]1[C@@H]2CC[C@]2(C)C(=N/N)/C(=N\O)C[C@@H]12	58.5 µM (inactive)	21.6 µM (inactive)	44.2 µM (inactive)	32.7 µM (inactive)	> 100 µM (inactive)	–	> 100 µM (inactive)	74.3 µM (inactive)	7.78 µM (inactive)	> 100 µM (inactive)	40 µM (inactive)	> 100 µM (inactive)	16.4 µM (inactive)	> 100 µM (inactive)	> 100 µM (inactive)	> 100 µM (inactive)	45.9 µM (inactive)	> 100 µM (inactive)	> 100 µM (inactive)	57 µM (inactive)
CC(=O)Oc1ccc(/C=C/C(=O)O[C@@H](C)[C@H](C)OC(=O)/C=C/c2ccc(OC(C)=O)c(OC(C)=O)c2)cc1OC(C)=O	8.41 µM (inactive)	17.1 µM (inactive)	3.94 µM (inactive)	39.9 µM (inactive)	21.2 µM (inactive)	5.94 µM (inactive)	4.75 µM (inactive)	–	5.77 µM (inactive)	13 µM (inactive)	29.5 µM (inactive)	5.15 µM (inactive)	2.22 µM (inactive)	6.5 µM (inactive)	23.1 µM (inactive)	5.94 µM (inactive)	7.45 µM (inactive)	> 100 µM (inactive)	11.4 µM (inactive)	6.61 µM (inactive)
Cc1ccc(/N=N/c2c(O)ccc3cc(S(=O)(=O)O)ccc23)c(C)c1	> 100 µM (inactive)	> 100 µM (inactive)	> 100 µM (inactive)	> 100 µM (inactive)	> 100 µM (inactive)	> 100 µM (inactive)	–	> 100 µM (inactive)	> 100 µM (inactive)	> 100 µM (inactive)	> 100 µM (inactive)	> 100 µM (inactive)	> 100 µM (inactive)	> 100 µM (inactive)	> 100 µM (inactive)	> 100 µM (inactive)	> 100 µM (inactive)	> 100 µM (inactive)	> 100 µM (inactive)	–
COc1ccc2c(c1)CCN1CCCc3ccccc3C21 (centres undefined)	31 µM (inactive)	37.2 µM (inactive)	37.5 µM (inactive)	23.1 µM (inactive)	42.9 µM (inactive)	–	22.3 µM (inactive)	28.1 µM (inactive)	31.8 µM (inactive)	45.1 µM (inactive)	27.6 µM (inactive)	79.3 µM (inactive)	32.1 µM (inactive)	45.8 µM (inactive)	36.9 µM (inactive)	29.4 µM (inactive)	69.2 µM (inactive)	17.5 µM (inactive)	54.2 µM (inactive)	22.4 µM (inactive)
Oc1ccc2ccccc2c1C(c1ccc(Cl)cc1)c1c(O)ccc2ccccc12	3.48 µM (inactive)	3.43 µM (inactive)	2.63 µM (inactive)	3.17 µM (inactive)	3.08 µM (inactive)	3.16 µM (inactive)	2.01 µM (inactive)	–	2.82 µM (inactive)	2.86 µM (inactive)	2.06 µM (inactive)	2.63 µM (inactive)	2.86 µM (inactive)	3.78 µM (inactive)	2.51 µM (inactive)	2.9 µM (inactive)	3.89 µM (inactive)	5.05 µM (inactive)	3.52 µM (inactive)	2.91 µM (inactive)
Oc1cc(N2CCCC2)ccc1/C=N/N1C(=S)N(c2ccccc2)C(=N\c2ccccc2)/C1=N/c1ccccc1	97.7 µM (inactive)	31.2 µM (inactive)	–	48 µM (inactive)	> 100 µM (inactive)	> 100 µM (inactive)	> 100 µM (inactive)	58.6 µM (inactive)	> 100 µM (inactive)	> 100 µM (inactive)	> 100 µM (inactive)	> 100 µM (inactive)	> 100 µM (inactive)	87.7 µM (inactive)	> 100 µM (inactive)	> 100 µM (inactive)	35.2 µM (inactive)	> 100 µM (inactive)	> 100 µM (inactive)	–
CNC(=S)/C(C#N)=C(\N)N1CCCC1	> 100 µM (inactive)	> 100 µM (inactive)	> 100 µM (inactive)	> 100 µM (inactive)	> 100 µM (inactive)	> 100 µM (inactive)	> 100 µM (inactive)	> 100 µM (inactive)	> 100 µM (inactive)	57.5 µM (inactive)	> 100 µM (inactive)	> 100 µM (inactive)	> 100 µM (inactive)	> 100 µM (inactive)	> 100 µM (inactive)	> 100 µM (inactive)	> 100 µM (inactive)	> 100 µM (inactive)	> 100 µM (inactive)	–
